Test [1] concerns MDA-MB-231. The experiment in a line: cells. The note with it: Homo sapiens, MDA-MB-231, 120 h.
A short description of test [2]: Metal chelating activity in pH 7 ammonium acetate buffer assessed as Fe2+-compound complex formation at compound to metal ratio of 1:4 to 1:50 under anaerobic condition by UV spectroscopic method. The test is classed as functional.
In test [3] the test system is MDA-MB-231. The experiment in a line: cells. To be noted: Homo sapiens, MDA-MB-231, 120 h. The source holds these as a separate data set.
For test [4], the target named is T1, Ribonucleoside-diphosphate reductase subunit M2 (Homo sapiens, UniProt P31350).
T1 sequence (P31350 whole entry): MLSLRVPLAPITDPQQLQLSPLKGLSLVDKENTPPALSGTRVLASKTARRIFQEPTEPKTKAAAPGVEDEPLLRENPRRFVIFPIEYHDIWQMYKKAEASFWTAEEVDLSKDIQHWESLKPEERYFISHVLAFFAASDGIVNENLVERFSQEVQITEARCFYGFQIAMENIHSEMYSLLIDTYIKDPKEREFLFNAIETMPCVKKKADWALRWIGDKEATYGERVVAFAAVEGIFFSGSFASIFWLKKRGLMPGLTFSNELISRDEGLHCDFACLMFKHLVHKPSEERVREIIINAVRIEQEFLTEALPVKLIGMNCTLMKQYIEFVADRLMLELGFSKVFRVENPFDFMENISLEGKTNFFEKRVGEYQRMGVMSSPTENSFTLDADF
The experiment in a line: Inhibition of human RRM2 expressed in Escherichia coli BL21-codon plus(DE3) using [14C]-ADP as substrate after 3 mins by liquid scintillation counting method.

A short description of test [5]: Metal chelating activity in pH 7 ammonium acetate buffer assessed as Mg2+-compound complex formation at compound to metal ratio of 1:1 to 1:10 under anaerobic condition by UV spectroscopic method. The test is classed as functional.
Test [6] deals with MDA-MB-231. The experiment in a line: cells. To be noted: Homo sapiens, MDA-MB-231, 120 h. The source holds these as a separate data set.
Test [7] in a line: Metal chelating activity in pH 7 ammonium acetate buffer assessed as Fe3+-compound complex formation at compound to metal ratio of 1:1 to 1:50 under anaerobic condition by UV spectroscopic method. The test is classed as functional.
Test [8] deals with MDA-MB-231. Nature of the test: cells. The note with it: Homo sapiens, MDA-MB-231, 120 h. The source holds these as a separate data set.
In test [9] the target is T2, Ribonucleoside-diphosphate reductase large subunit (Homo sapiens, UniProt P23921).
T2 sequence (P23921 whole entry): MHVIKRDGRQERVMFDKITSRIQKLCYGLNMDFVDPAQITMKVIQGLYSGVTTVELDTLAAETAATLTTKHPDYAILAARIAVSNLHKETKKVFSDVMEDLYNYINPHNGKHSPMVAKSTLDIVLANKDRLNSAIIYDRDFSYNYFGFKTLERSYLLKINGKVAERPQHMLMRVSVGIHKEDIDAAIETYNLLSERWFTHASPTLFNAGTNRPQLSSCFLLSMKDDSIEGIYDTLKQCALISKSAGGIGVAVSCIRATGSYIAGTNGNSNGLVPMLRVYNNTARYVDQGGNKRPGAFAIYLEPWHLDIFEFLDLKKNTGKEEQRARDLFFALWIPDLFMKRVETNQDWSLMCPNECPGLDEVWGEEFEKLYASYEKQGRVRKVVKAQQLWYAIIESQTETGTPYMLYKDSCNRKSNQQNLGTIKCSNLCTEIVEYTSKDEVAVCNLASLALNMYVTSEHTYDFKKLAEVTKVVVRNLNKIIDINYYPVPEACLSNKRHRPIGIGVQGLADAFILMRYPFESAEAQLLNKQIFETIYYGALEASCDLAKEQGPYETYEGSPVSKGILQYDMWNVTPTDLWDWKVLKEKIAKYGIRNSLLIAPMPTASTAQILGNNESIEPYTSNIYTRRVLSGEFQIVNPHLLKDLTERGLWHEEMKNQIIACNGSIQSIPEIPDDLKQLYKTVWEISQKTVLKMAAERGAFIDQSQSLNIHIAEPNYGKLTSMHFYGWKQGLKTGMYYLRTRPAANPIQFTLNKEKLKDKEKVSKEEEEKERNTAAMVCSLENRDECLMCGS
The experiment in a line: Inhibition of human RRM1 expressed in Escherichia coli BL21-codon plus(DE3)-RIL using [14C]-ADP as substrate after 3 mins by liquid scintillation counting method.

The test system of test [10] is MDA-MB-231. The experiment in a line: cells. The note with it: Homo sapiens, MDA-MB-231, 72 h.

These results are taken from ChEMBL document CHEMBL4024782, “Structure-Guided Synthesis and Mechanistic Studies Reveal Sweetspots on Naphthyl Salicyl Hydrazone Scaffold as Non-Nucleosidic Competitive, Reversible Inhibitors of Human Ribonucleotide Reductase” (J Med Chem, 2018).

Active and inactive are the calls of the source. The calls are words filed in the database; no cut-off is given here.

What is called IC50 is the concentration that gives 50% inhibition.

`O=C(N/N=C/c1c(O)ccc2ccccc12)c1ccccc1O`: the IC50 with MDA-MB-231 [1] came to 347 nM; in the test on MDA-MB-231 [3] it was 1940 nM; in test [4], 123000 nM; in the test with MDA-MB-231 [6] it was 1490 nM; in the test with MDA-MB-231 [8] it was 1430 nM. Further, the result in [2] was Active. Further, the outcome in test [5] and in test [7] was inactive.

Take `NC(=S)N/N=C/c1ncccc1N` [TRIAPINE]: in test [4], the 50% inhibitory concentration (IC50) came to 185 nM.

As to `O=C(N/N=C/c1c(O)ccc2ccccc12)OCc1ccccc1`, in test [9], the IC50 came out at 120000 nM.

Regarding `O=S(=O)(Cc1ccccc1)N/N=C/c1c(O)ccc2ccccc12`, the IC50 in test [9] is 131000 nM.

On to `COc1cc(/C=N/N=C/c2c(O)ccc3ccccc23)ccc1O`, for which the IC50 in [9] was found to be 687000 nM.

In turn, `Nc1ccn([C@@H]2O[C@H](CO)[C@@H](O)C2(F)F)c(=O)n1` [GEMCITABINE] yielded an IC50 in the test on MDA-MB-231 [10] of 30 to 100 nM.
